Biological target: S. pneumoniae Topoisomerase IV ATPase (ParE) (Streptococcus pneumoniae serotype 4, UniProt Q59961)
Assay: S. pneumoniae Topoisomerase IV ATPase inhibition
Assay type: biochemical
Settings: values marked * are an average of two or more data points, read-out: % Inh (13 μM) of S. pneumoniae Topoisomerase IV ATPase
Outline: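 ParE ATPase (1.25 nM) run with 160 μM ATP and 5 μg/ml sheared salmon sperm DNA in Tris pH 8.0, Mg2+, glycerol, DTT, Brij-35. Phosphate released read by malachite green/molybdate absorbance at 650 nm. IC50 from 10 compound concentrations; DMSO (2%) as 0% and EDTA (20 μM) as 100% inhibition.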

Sequence of S. pneumoniae Topoisomerase IV ATPase (ParE) (Q59961 whole entry): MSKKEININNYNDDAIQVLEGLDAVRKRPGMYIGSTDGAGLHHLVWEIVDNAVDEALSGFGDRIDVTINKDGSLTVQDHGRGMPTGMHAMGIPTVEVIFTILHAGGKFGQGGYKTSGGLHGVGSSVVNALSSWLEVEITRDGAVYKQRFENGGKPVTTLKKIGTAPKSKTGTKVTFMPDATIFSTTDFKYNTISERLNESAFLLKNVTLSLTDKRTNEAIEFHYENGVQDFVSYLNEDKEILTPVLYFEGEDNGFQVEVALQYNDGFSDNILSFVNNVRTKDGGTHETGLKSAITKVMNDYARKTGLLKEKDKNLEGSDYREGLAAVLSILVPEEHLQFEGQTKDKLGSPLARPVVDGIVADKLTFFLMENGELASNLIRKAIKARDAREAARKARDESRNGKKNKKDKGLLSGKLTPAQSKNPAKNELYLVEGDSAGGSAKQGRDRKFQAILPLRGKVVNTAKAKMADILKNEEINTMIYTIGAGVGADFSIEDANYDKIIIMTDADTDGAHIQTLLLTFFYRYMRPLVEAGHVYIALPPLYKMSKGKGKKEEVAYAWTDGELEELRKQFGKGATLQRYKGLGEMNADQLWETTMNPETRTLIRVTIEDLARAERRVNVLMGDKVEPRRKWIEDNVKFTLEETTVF

| Compound | inhibition at 13 µM [%] |
| --- | --- |
| Cn1cc(CNc2nc(Nc3ccc(F)c(Cl)c3)ncc2-c2cncc(C(=O)O)c2)cn1 [Example 282, 5-(2-(3-chloro-4-fluorophenylamino)-4-((1-methyl-1H-pyrazol-4-yl)methylamino)pyrimidin-5-yl)nicotinic acid] | 117 |
| COCC(COC)Nc1nc(Nc2ccc(F)c(Cl)c2)ncc1-c1cncc(C(=O)O)c1 [Example 283, 5-(2-(3-chloro-4-fluorophenylamino)-4-(1,3-dimethoxypropan-2-ylamino)pyrimidin-5-yl)nicotinic acid] | 89.9 |
| COCCN1CCN(c2nc(Nc3ccc(F)c(Cl)c3)ncc2-c2cncc(C(=O)O)c2)CC1 [Example 284, 5-(2-(3-chloro-4-fluorophenylamino)-4-(4-(2-methoxyethyl)piperazin-1-yl)pyrimidin-5-yl)nicotinic acid] | 69.4 |
| CN1CCN(c2nc(Nc3ccc(F)c(Cl)c3)ncc2-c2cncc(C(=O)O)c2)CC1 [Example 285, 5-(2-(3-chloro-4-fluorophenylamino)-4-(4-methylpiperazin-1-yl)pyrimidin-5-yl)nicotinic acid] | 61.9 |
| CC1CN(c2nc(Nc3ccc(F)c(Cl)c3)ncc2-c2cccc(/C=C/C(=O)O)c2)CC(C)O1 (centres unmarked) [Example 286, (E)-3-(3-(2-(3-chloro-4-fluorophenylamino)-4-(2,6-dimethylmorpholin-)-pyrimidin-5-yl)phenyl)acrylic acid] | 89.8 |
| O=C(O)/C=C/c1cccc(-c2cnc(Nc3ccc(F)c(Cl)c3)nc2N2CCN(C(=O)C3CC3)CC2)c1 [Example 287, (E)-3-(3-(2-(3-chloro-4-fluorophenylamino)-4-(4-(cyclopropanecarbonyl)-piperazin-1-yl)pyrimidin-5-yl)phenyl)acrylic acid] | 97.2 |
| CC(=O)N1CCN(c2nc(Nc3ccc(F)c(Cl)c3)ncc2-c2cccc(/C=C/C(=O)O)c2)CC1 [Example 288, (E)-3-(3-(4-(4-acetylpiperazin-1-yl)-2-(3-chloro-4-fluorophenylamino)-pyrimidin-5-yl)phenyl)acrylic acid] | 82.9 |
| O=C(O)/C=C/c1cccc(-c2cnc(Nc3ccc(F)c(Cl)c3)nc2NCCCc2nc3ccccc3[nH]2)c1 [Example 289, (E)-3-(3-(4-(3-(1H-benzo[d]imidazol-2-yl)propylamino)-2-(3-chloro-4-fluorophenylamino)-pyrimidin-5-yl)phenyl)acrylic acid] | 88.2 |
| O=C(O)/C=C/c1cccc(-c2cnc(Nc3ccc(F)c(Cl)c3)nc2N2CCOCC2)c1 [Example 290, (E)-3-(3-(2-(3-chloro-4-fluorophenylamino)-4-morpholinopyrimidin-5-yl)phenyl)acrylic acid] | 80.5 |
| CN(C)C(=O)N1CCN(c2nc(Nc3ccc(F)c(Cl)c3)ncc2-c2cccc(/C=C/C(=O)O)c2)CC1 [Example 291, (E)-3-(3-(2-(3-chloro-4-fluorophenylamino)-4-(4-(dimethylcarbamoyl)-piperazin-1-yl)pyrimidin-5-yl)phenyl)acrylic acid] | 90.1 |
| Cc1cnc(C(=O)NCCCNc2nc(Nc3ccc(F)c(Cl)c3)ncc2-c2cccc(/C=C/C(=O)O)c2)cn1 [Example 292, (E)-3-(3-(2-(3-chloro-4-fluorophenylamino)-4-(3-(5-methylpyrazine-2-carboxamido)propylamino)-pyrimidin-5-yl)phenyl)acrylic acid] | 81 |
| COCCCNc1nc(Nc2ccc(F)c(Cl)c2)ncc1-c1cccc(/C=C/C(=O)O)c1 [Example 293, (E)-3-(3-(2-(3-chloro-4-fluorophenylamino)-4-(3-methoxypropylamino)-pyrimidin-5-yl)phenyl)acrylic acid] | 85.3 |
| O=C(O)/C=C/c1cccc(-c2cnc(Nc3ccc(F)c(Cl)c3)nc2N2CCCC2)c1 [Example 294, (E)-3-(3-(2-(3-chloro-4-fluorophenylamino)-4-(pyrrolidin-1-yl)pyrimidin-5-yl)phenyl)acrylic acid] | 73.2 |
| O=C(O)/C=C/c1cccc(-c2cnc(Nc3ccc(F)c(Cl)c3)nc2N[C@@H]2CCOC2)c1 [Example 295, (R,E)-3-(3-(2-(3-chloro-4-fluorophenylamino)-4-(tetrahydrofuran-3-ylamino)pyrimidin-5-yl)phenyl)acrylic acid] | 82.7 |
| Cn1cncc1CNc1nc(Nc2ccc(F)c(Cl)c2)ncc1-c1cccc(/C=C/C(=O)O)c1 [Example 296, (E)-3-(3-(2-(3-chloro-4-fluorophenylamino)-4-((1-methyl-1H-imidazol-5-yl)methylamino)pyrimidin-5-yl)phenyl)acrylic acid] | 77.6 |
| O=C(O)/C=C/c1cccc(-c2cnc(Nc3ccc(F)c(Cl)c3)nc2N2CCCCC2)c1 [Example 297, (E)-3-(3-(2-(3-chloro-4-fluorophenylamino)-4-(piperidin-1-yl)pyrimidin-5-yl)phenyl)acrylic acid] | 128 |

| Compound | inhibition at 13 µM [%] |
| --- | --- |
| Cn1cc(CNc2nc(Nc3ccc(F)c(Cl)c3)ncc2-c2cccc(/C=C/C(=O)O)c2)cn1 [Example 298, (E)-3-(3-(2-(3-chloro-4-fluorophenylamino)-4-((1-methyl-1H-pyrazol-4-yl)methylamino)pyrimidin-5-yl)phenyl)acrylic acid] | 80.7 |
| COCC(COC)Nc1nc(Nc2ccc(F)c(Cl)c2)ncc1-c1cccc(/C=C/C(=O)O)c1 [Example 299] | 98.7 |
| COCCN1CCN(c2nc(Nc3ccc(F)c(Cl)c3)ncc2-c2cccc(/C=C/C(=O)O)c2)CC1 [Example 300, (E)-3-(3-(2-(3-chloro-4-fluorophenylamino)-4-(4-(2-methoxyethyl)piperazin-1-yl)pyrimidin-5-yl)phenyl)acrylic acid] | 82.3 |
| CN1CCN(c2nc(Nc3ccc(F)c(Cl)c3)ncc2-c2cccc(/C=C/C(=O)O)c2)CC1 [Example 301, (E)-3-(3-(2-(3-chloro-4-fluorophenylamino)-4-(4-methylpierazin-1-yl)pyrimidin-5-yl)phenyl)acrylic acid] | 72.2 |
| CS(=O)(=O)N1CCN(c2nc(Nc3ccc(F)c(Cl)c3)ncc2-c2cccc(/C=C/C(=O)O)c2)CC1 [Example 302, (E)-3-(3-(2-(3-chloro-4-fluorophenylamino)-4-(4-(methylsulfonyl)piperazin-1-yl)pyrimidin-5-yl)phenyl)acrylic acid] | 83 |
| COCCn1cc(C(=O)O)c(=O)c2cc(-c3cnc(Nc4ccc(F)c(Cl)c4)nc3N3CCOCC3)ccc21 [Example 303, 6-(2-(3-chloro-4-fluorophenylamino)-4-morpholinopyrimidin-5-yl)-1-(2-methoxyethyl)-4-oxo-1,4-dihydroquinone-3-carboxylic acid] | 82 |
| COCCCNc1nc(Nc2ccc(F)c(Cl)c2)ncc1-c1ccc2c(c1)c(=O)c(C(=O)O)cn2CCOC [Example 304, 6-(2-(3-chloro-4-fluorophenylamino)-4-(3-methoxypropylamino)-pyrimidin-5-yl)-1-(2-methoxyethyl)-4-oxo-1,4-dihydroquinoline-3-carboxylic acid] | 55.8 |
| COCCCNc1nc(Nc2ccc(F)c(Cl)c2)ncc1-c1ccc2ncc(C(=O)O)cc2c1 [Example 305, 6-(2-(3-chloro-4-fluorophenylamino)-4-(3-methoxypropylamino)-pyrimidin-5-yl)quinoline-3-carboxylic acid] | 89.2 |
| O=C(O)c1cc2cc(-c3cnc(Nc4ccc(F)c(Cl)c4)nc3N3CCOCC3)ccc2s1 [Example 306, 5-(2-(3-chloro-4-fluorophenylamino)-4-morpholinopyrimidin-5-yl)benzo[b]thiophene-2-carboxylic acid] | 84.8 |
| COCCCNc1nc(Nc2ccc(F)c(Cl)c2)ncc1-c1ccc2sc(C(=O)O)cc2c1 [Example 307, 5-(2-(3-choloro-4-fluorophenylamino)-4-(3-methoxypropylamino)-pyrimidin-5-yl)benzo[b]thiophene-2-carboxylic acid] | 80.6 |
| O=C(O)c1cncc(-c2cnc(Nc3ccc(F)c(Cl)c3)nc2-n2cc(-c3ccncc3)cn2)c1 [Example 308, 5-{2-[(3-chloro-4-fluorophenyl)amino]-4-[4-(pyridin-4-yl)-1H-pyrazol-1-yl]pyrimidin-5-yl}pyridine-3-carboxylic acid] | 101 |
| O=C(O)c1cncc(-c2cnc(Nc3ccc(F)c(Cl)c3)nc2-n2cc(Cl)cn2)c1 [Example 309, 5-{2-[(3-chloro-4-fluorophenyl)amino]-4-(4-chloro-1H-pyrazol-1-yl)pyrimidin-5-yl}pyridine-3-carboxylic acid] | 69.4 |
| Cc1nccn1-c1nc(Nc2ccc(F)c(Cl)c2)ncc1-c1cncc(C(=O)O)c1 [Example 310, 5-{2-[(3-chloro-4-fluorophenyl)amino]-4-(2-methyl-1H-imidazol-1-yl)pyrimidin-5-yl}pyridine-3-carboxylic acid] | 80 |
| O=C(O)c1cncc(-c2cnc(Nc3ccc(F)c(Cl)c3)nc2-n2cccc2)c1 [Example 311, 5-{2-[(3-chloro-4-fluorophenyl)amino]-4-(1H-pyrrol-1-yl)pyrimidin-5-yl}pyridine-3-carboxylic acid] | 81.8 |
| O=C(O)/C=C/c1cccc(-c2cnc(Nc3ccc(F)c(Cl)c3)nc2-n2cc(-c3ccncc3)cn2)c1 [Example 312, (2E)-3-(3-{2-[(3-chloro-4-fluorophenyl)amino]-4-[4-(pyridin-4-yl)-1H-pyrazol-1-yl]pyrimidin-5-yl}phenyl)prop-2-enoic acid] | 101 |
| O=C(O)/C=C/c1cccc(-c2cnc(Nc3ccc(F)c(Cl)c3)nc2-n2cc(Cl)cn2)c1 [Example 313, (2E)-3-(3-{2-[(3-chloro-4-fluorophenyl)amino]-4-(4-chloro-1H-pyrazol-1-yl)pyrimidin-5-yl}phenyl)prop-2-enoic acid] | 80.3 |
